Data: article doi:10.1101/2021.09.30.462449v1 (biorxiv, 2021)

Experiments:
Assay in all cases: biochemical
Settings in all cases: read-out: % inhibition mean (Z'Lyte)
[1] = biological target: AMPK (A2/B2/G3) (Homo sapiens, UniProt P54646)
[2] = biological target: AURKA (Aurora A) (Homo sapiens, UniProt O14965)
[3] = biological target: AURKB (Aurora B) (Homo sapiens, UniProt Q96GD4)
[4] = biological target: CDC42 BPB (MRCKB) (Homo sapiens, UniProt Q9Y5S2)
[5] = biological target: CLK3 (Homo sapiens, UniProt P49761)
[6] = biological target: EPHB4 (Homo sapiens, UniProt P54760)
[7] = biological target: FES (FPS) (Homo sapiens, UniProt P07332)
[8] = biological target: FGFR3 K650E (Homo sapiens, UniProt P22607, K650E)
[9] = biological target: IGF1R (Homo sapiens, UniProt P08069)
[10] = biological target: JAK2 JH1 JH2 V617F (Homo sapiens, UniProt O60674, V617F)
[11] = biological target: MAP2K2 (MEK2) (Homo sapiens, UniProt P36507)
[12] = biological target: MAPK14 (p38 alpha) (Homo sapiens, UniProt Q16539)
[13] = biological target: MET M1250T (Homo sapiens, UniProt P08581, M1250T)
[14] = biological target: NEK6 (Homo sapiens, UniProt Q9HC98)
NEK6, sequence (Q9HC98 whole entry): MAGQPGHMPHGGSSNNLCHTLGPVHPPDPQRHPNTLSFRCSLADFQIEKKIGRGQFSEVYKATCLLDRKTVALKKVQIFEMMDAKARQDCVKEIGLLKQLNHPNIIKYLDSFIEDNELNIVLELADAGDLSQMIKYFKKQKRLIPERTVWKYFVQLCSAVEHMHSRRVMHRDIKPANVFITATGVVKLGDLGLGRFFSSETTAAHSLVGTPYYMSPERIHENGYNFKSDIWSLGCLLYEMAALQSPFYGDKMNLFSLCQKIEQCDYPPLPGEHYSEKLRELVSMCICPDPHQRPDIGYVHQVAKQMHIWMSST

[15] = biological target: NTRK1 (TRKA) (Homo sapiens, UniProt P04629)
NTRK1 (TRKA), sequence (P04629 whole entry): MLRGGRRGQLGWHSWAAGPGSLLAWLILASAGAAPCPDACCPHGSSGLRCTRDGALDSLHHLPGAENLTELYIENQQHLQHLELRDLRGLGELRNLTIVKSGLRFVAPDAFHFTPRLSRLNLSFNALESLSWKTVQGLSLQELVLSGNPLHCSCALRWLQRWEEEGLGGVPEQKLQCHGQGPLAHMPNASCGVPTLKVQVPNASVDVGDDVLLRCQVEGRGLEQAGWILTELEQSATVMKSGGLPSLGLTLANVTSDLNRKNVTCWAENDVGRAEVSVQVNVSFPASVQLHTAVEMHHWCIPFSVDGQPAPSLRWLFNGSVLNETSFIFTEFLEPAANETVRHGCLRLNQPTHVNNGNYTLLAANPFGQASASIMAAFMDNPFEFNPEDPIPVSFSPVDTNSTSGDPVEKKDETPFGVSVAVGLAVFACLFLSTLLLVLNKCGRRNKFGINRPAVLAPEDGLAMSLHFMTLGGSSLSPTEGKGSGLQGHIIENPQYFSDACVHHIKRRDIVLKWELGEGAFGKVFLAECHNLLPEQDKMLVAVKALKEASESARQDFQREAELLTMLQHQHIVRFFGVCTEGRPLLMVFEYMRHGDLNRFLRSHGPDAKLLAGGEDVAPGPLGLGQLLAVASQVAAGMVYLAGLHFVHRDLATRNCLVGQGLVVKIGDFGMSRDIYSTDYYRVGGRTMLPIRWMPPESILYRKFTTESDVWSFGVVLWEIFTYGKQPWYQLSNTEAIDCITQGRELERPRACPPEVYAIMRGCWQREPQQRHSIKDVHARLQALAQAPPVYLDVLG

[16] = biological target: PAK4 (Homo sapiens, UniProt O96013)
[17] = biological target: PLK1 (Homo sapiens, UniProt P53350)
PLK1, sequence (P53350 whole entry): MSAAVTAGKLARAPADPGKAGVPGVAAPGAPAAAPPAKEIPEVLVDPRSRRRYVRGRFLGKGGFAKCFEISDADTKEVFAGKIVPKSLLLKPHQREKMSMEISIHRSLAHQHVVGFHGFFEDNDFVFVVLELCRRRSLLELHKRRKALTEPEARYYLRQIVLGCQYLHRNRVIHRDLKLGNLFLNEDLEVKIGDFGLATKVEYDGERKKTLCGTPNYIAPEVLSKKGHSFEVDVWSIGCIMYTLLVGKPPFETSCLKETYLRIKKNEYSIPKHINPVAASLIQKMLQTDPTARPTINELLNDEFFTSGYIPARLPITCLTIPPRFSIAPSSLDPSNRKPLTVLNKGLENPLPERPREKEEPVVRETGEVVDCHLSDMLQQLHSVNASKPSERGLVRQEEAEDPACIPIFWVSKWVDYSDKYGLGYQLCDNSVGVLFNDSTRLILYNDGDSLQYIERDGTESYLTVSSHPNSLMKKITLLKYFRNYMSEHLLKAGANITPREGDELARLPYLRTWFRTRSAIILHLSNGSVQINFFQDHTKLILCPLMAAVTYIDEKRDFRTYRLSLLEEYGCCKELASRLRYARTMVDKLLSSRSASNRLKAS

[18] = biological target: PLK2 (Homo sapiens, UniProt Q9NYY3)
[19] = biological target: PRKCI (PKC iota) (Homo sapiens, UniProt P41743)
[20] = biological target: PRKCN (PKD3) (Homo sapiens, UniProt O94806)
[21] = biological target: PRKCZ (PKC zeta) (Homo sapiens, UniProt Q05513)
PRKCZ (PKC zeta), sequence (Q05513 whole entry): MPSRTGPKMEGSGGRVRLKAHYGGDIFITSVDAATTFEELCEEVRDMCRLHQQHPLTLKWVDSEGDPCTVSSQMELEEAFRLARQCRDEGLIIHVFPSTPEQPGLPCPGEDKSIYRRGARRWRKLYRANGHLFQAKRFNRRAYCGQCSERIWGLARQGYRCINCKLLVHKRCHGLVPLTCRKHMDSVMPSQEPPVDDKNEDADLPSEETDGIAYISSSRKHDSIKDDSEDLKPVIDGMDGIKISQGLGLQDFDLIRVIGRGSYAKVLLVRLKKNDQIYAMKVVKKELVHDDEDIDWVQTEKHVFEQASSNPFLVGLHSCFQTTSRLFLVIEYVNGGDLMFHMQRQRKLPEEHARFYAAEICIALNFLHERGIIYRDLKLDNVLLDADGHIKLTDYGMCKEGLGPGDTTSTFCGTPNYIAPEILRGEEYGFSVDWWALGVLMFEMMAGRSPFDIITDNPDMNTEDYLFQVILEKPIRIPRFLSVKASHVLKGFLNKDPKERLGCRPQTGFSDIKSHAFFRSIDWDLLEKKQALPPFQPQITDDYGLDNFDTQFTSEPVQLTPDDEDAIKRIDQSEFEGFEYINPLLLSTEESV

[22] = biological target: PRKD2 (PKD2) (Homo sapiens, UniProt Q9BZL6)
[23] = biological target: PRKX (Homo sapiens, UniProt P51817)
[24] = biological target: RET (Homo sapiens, UniProt P07949)
[25] = biological target: ROCK2 (Homo sapiens, UniProt O75116)
[26] = biological target: ROS1 (Homo sapiens, UniProt P08922)
ROS1, sequence (P08922 whole entry): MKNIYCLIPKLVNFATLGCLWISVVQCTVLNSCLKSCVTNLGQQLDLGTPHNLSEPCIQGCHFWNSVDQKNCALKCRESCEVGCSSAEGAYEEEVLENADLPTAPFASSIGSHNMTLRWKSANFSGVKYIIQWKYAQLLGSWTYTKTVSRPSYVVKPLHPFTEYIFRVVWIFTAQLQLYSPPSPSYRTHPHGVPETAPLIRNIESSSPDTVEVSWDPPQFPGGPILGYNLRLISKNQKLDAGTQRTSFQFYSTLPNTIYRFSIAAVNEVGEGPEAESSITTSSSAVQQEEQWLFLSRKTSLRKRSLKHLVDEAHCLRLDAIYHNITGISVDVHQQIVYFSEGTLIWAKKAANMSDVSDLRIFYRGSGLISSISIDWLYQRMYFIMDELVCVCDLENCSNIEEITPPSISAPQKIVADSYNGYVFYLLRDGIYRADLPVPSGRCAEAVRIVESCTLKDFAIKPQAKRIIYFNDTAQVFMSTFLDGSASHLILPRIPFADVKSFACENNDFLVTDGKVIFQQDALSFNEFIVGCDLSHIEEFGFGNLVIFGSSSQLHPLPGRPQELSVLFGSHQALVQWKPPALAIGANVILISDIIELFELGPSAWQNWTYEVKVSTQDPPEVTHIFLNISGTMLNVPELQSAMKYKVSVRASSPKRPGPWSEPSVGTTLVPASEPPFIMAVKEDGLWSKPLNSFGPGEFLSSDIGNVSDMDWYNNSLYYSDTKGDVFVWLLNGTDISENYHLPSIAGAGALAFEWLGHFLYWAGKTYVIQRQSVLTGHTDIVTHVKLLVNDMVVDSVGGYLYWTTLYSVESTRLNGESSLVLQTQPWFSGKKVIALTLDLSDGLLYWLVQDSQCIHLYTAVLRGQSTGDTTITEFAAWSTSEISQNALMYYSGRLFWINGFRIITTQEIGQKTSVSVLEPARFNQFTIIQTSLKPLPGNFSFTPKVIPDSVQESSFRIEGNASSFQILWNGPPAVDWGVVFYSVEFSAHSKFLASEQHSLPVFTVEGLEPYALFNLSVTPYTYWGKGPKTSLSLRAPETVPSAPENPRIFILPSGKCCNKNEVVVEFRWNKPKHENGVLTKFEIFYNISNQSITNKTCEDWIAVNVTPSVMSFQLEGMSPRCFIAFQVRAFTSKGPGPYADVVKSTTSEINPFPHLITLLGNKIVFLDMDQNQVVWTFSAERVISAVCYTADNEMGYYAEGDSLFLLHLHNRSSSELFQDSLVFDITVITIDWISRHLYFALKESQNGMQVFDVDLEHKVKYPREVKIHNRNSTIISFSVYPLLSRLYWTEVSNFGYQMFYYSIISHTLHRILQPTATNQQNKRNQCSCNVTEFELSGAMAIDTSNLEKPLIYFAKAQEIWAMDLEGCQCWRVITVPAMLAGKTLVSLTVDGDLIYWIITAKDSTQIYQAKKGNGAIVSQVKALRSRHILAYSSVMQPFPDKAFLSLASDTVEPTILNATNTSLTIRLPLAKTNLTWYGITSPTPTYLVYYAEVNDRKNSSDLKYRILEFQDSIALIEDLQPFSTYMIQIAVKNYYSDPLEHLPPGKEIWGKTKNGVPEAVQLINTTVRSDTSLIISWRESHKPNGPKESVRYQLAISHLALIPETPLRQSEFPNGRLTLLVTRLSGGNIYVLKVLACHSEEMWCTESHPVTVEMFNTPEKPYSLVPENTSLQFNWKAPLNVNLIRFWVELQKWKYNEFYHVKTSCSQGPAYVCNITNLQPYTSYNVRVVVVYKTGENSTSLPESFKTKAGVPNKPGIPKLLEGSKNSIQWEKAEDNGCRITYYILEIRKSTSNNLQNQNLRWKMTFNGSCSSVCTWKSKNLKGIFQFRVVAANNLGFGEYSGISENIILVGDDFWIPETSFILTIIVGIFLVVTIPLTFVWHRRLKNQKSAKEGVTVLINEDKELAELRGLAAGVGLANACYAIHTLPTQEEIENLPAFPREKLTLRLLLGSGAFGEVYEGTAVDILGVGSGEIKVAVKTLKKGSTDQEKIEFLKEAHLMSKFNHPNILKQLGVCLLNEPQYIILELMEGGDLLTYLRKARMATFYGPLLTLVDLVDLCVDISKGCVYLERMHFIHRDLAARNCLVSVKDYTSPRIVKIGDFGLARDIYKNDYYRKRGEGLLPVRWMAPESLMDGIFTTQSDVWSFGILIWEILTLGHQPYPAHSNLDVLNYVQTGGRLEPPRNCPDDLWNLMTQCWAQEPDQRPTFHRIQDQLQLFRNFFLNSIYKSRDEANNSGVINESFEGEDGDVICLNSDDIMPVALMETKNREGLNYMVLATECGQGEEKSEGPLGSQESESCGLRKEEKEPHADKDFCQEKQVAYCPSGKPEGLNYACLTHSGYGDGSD

[27] = biological target: SBK1 (Homo sapiens, UniProt Q52WX2)
[28] = biological target: STK4 (MST1) (Homo sapiens, UniProt Q13043)
[29] = biological target: TYRO3 (RSE) (Homo sapiens, UniProt Q06418)

AURKB (Aurora B), sequence (Q96GD4 whole entry): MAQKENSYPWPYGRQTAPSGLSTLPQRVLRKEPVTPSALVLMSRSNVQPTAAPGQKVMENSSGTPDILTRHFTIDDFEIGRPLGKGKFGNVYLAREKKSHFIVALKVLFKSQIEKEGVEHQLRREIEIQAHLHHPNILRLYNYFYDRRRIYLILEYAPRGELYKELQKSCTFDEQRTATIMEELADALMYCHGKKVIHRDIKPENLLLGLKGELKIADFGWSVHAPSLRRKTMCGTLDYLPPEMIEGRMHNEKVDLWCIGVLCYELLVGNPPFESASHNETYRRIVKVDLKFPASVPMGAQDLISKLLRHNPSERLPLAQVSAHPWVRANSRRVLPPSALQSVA

SMILES: COc1ccc2nc3cc(Cl)ccc3c(Nc3cc(CN4CCCC4)c(O)c(CN4CCCC4)c3)c2n1 [Pyronaridine, 4-[(7-Chloro-2-methoxybenzo[b][1,5]naphthyridin-10-yl)amino]-2,6-bis(1-pyrrolidinylmethyl)phenol phosphate (1:4)]
- inhibition at 1 µM [1]: 2%
- inhibition at 1 µM [2]: 9%
- inhibition at 1 µM [3]: 5%
- inhibition at 1 µM [4]: -3%
- inhibition at 1 µM [5]: -3%
- inhibition at 1 µM [6]: 7%
- inhibition at 1 µM [7]: -10%
- inhibition at 1 µM [8]: -4%
- inhibition at 1 µM [9]: 6%
- inhibition at 1 µM [10]: 0%
- inhibition at 1 µM [11]: 2%
- inhibition at 1 µM [12]: 1%
- inhibition at 1 µM [13]: 0%
- inhibition at 1 µM [14]: -3%
- inhibition at 1 µM [15]: 19%
- inhibition at 1 µM [16]: 3%
- inhibition at 1 µM [17]: 6%
- inhibition at 1 µM [18]: 5%
- inhibition at 1 µM [19]: -10%
- inhibition at 1 µM [20]: 8%
- inhibition at 1 µM [21]: -1%
- inhibition at 1 µM [22]: -4%
- inhibition at 1 µM [23]: 5%
- inhibition at 1 µM [24]: 5%
- inhibition at 1 µM [25]: 1%
- inhibition at 1 µM [26]: -6%
- inhibition at 1 µM [27]: 6%
- inhibition at 1 µM [28]: -5%
- inhibition at 1 µM [29]: -5%
